In US20230165772A1, “STABILIZED COSMETIC COMPOSITIONS WITH N, N'-DI-ACETYL CYSTINE” (Conopco, Inc., d/b/a UNILEVER, priority 2020, published 2023):
Entries after “also recorded” stand apart in the source; their conditions may differ.

Experiments:
[1] = Odor and H2S generation of 4-alkylresorcinol solutions during storage; format: physicochemical; settings: as stabilizer of 4-substituted resorcinols
Experimental: (§1) Samples were prepared by dissolving 4-hexylresorcinol (HR) (200 mg) or 4-ethylresorcinol (ER) (200 mg) in DI water:butylene glycol (4:1; 20 ml) to generate a clear colorless homogeneous solution. A portion of each solution (5 ml) was added to a 20 ml scintilation vial containing either niacinamide (B3) (50 mg), NDAC (N,N′-diacetyl-L-cystine) (50 mg), NACys (N-acetyl-L-cysteine) (50 mg), B3 (50 mg)+NDAC (50 mg) or B3 (50 mg)+NACys (50 mg). A hydrogen sulfide (H2S) test strip (Sigma) was placed above the sample solution and the samples sealed. Odor and H2S generation (unchanged test strip white color=no H2S generated; changed test strip brown/black color=H2S generated) were monitored for 2 weeks at R.T. (about 20 to about 22° C.).

[2] = Color of 4-alkylresorcinol solutions after storage (visual appearance and L*a*b*, Labscan XE); format: physicochemical
Experimental: as §1
After 2 weeks of storage at R.T. (about 20 to about 22° C.), the color of each solution was assessed visually. Additionally, L*a*b* measurements determined experimentally using a Labscan XE instrument (Hunter Associates Labs Inc., Reston, Va.) and processed with Universal Software (version 4.10). The L* parameter measures darkness and lightness and ranges from black (L*=0) to white (L*=100). The a* parameter measures color content and intensity ranging from green (a*<0) to neutral grey (a*=0) to red (a*>0). The b* parameter also measures color content and intensity ranging from blue (b*<0) to neutral grey (b*=0) to yellow (b*>0).

[3] = HPLC quantitation of 4-hexylresorcinol (HR) remaining after storage; format: physicochemical
Experimental: The amount of 4-hexylresorcinol (HR) or 4-ethylresorcinol (ER) present in each of the samples used for the color measurements was quantitated after 2 weeks @ R.T. (˜20-22° C.) by high performance liquid chromatography (HPLC). A sample aliquot (100 uL) from each of the color measurement solutions was diluted with DI water:acetonitrile (1:1, 900 uL) to generate test samples (1 ml). An aliquot (10 uL) from each test sample was injected into a Waters 2695 Separations Module, chromatographed and separated on a Restek Pinnacle DB C18 (5 μm, 4.6×150 mm) column operated at 30° C. and the 4-alkylresorcinols monitored using a Waters 2996 Photodiode Array Detector set @ 281 nm. […] Standard control samples of HR at 1×, 5×higher and 5×lower concentrations were prepared fresh and immediately analysed; standard curves were generated within the test sample range and linearity was confirmed.
All samples were analyzed in duplicate and the mean value reported. The amount of 4-alkylresorcinol present for each test sample after 2 weeks was determined by measuring the chromatographic peak area under the curve @ 281 nm for HR and expressed as the percent ratio over the corresponding chromatographic peak area under the curve @ 281 nm for the freshly prepared control sample.

[4] = biologically acceptable vehicle, neutral pH range; cited from earlier work
[5] = freshly prepared solution of HR

For CCOC(=O)[C@@H](N)CSSC[C@H](N)C(=O)OCC [DEC, Cystine diethyl ester], the “sulfurous odor generation by the stabilizer (in words)” value (from here on “sulfurous odor generation”) [1] was “sulfurous odor generating”.
In the case of CCCCCCc1ccc(O)cc1O [HR, 4-hexylresorcinol], the “color of freshly prepared solution” value [2, 5] is reported as “colorless” and the “decomposition of HR upon HPLC analysis” value [3, 5] is reported as “no decomposition”.
For CC(=O)N[C@@H](CS)C(=O)O [NACys, N-acetyl-L-cysteine], the “stabilizing resorcinol derivatives (in words)” value [3] was “effective” and the “sulfurous odor generation” value [1] was “generates sulforous odor; also recorded: sulfurous odor generating; also recorded: upleasant sulfurous odor”.
For CC(=O)N[C@@H](CSSC[C@H](NC(C)=O)C(=O)O)C(=O)O [NDAC, N,N′-diacetyl-L-Cystine], the “prevention of color formation / discoloration (in words)” value ([2]; after 2 weeks at R.T., in the presence or absence of B3) was “effective” and the “sulfurous odor generation” value [1] was “no sulfurous odor generation”.
In the case of N[C@@H](CSSC[C@H](N)C(=O)O)C(=O)O [cystine], the solubility [4] is given as “extremely low”.
